Measurements reported in patent publication US20240051940A1, “SULFONAMIDES WITH EGFR INHIBITION ACTIVITIES AND THEIR USE THEREOF” (ACCUTAR BIOTECHNOLOGY INC., priority 2021, published 2024).

Experiments:
Assay type in all cases: cell-based
NCI-H2073 = test: Cell growth inhibition (CellTiter-Glo), NCI-H2073; conditions: 72 h, NCI-H2073 cells, 3 days after administration
Procedure: (§1) 2. Cell Growth Inhibition for HCC827, HCC827-LTC, HCC827-DTC and NCI-H2073.
(§2) HCC827(ATCC), HCC827-LTC, HCC827-DTC and NCI-H2073 (ATCC) were seeded in 96-well plates at 5000 cells/well in 90 μL of RPMI growth medium containing 10% FBS and 1% Penicillin Streptomycin. Cells were incubated at 37° C. overnight. The following day, the test compound was administered to the cells by using 10× compound stock solution prepared in growth medium at various concentrations. After administration of the compound, cells were then incubated at 37° C. for 3 days. Before CellTiter-Glo assay, the plates were equilibrated at room temperature for approximately 10 minutes. 100 ul of CellTiter-Glo® Reagent (Promega) was added to each well. The plates were then incubated at room temperature for 10 minutes and luminescence was recorded by EnSpire plate reader (PerkinElmer).

[1] = system: HCC827-LTC (HCC827 cells stably expressing human EGFR L858R/T790M/C797S, endogenous EGFR knocked out); test: Cell growth inhibition (CellTiter-Glo), HCC827-LTC; conditions: 72 h, 3 days after administration
Procedure: (§3) 1. Preparation of HCC827-LTC and HCC827-DTC Cell Lines
(§4) HCC827 cells (ATCC) were transduced with lentiviral particles expressing codon-optimized human EGFR L858R/T790M/C797S (LTC) mutant or del19/T790M/C797S (DTC) mutant, and then selecting under 5 ug/ml purimycin treatment for a week to generate HCC827 cells stably expressing EGFR LTC or DTC mutants. Next, endogenous EGFR gene in purimycin-selected HCC827 LTC or DTC cells was knocked out using CRISPR-Cas9 technology to ensure the growth of engineered HCC827 cells was solely dependent on exogenous EGFR LTC or DTC mutants. For the EGFR knockout, gRNA complex was prepared by combining Alt-R CRISPR-Cas9 tracrRNA and EGFR crRNA (5′-[…]-3′ for LTC) or (5′-[…]-3′ for DTC) (IDT-Integrated DNA Technologies), and then EGFR ribonucleoprotein (RNP) complex was prepared by combining gRNA complex and Alt-R S.p. Cas9 Nuclease V3 (IDT-Integrated DNA Technologies). Purimycin-selected HCC827 LTC or DTC cells were then electroporated with EGFR RNP complexes using Neon Transfection System (Thermo Fisher). Single clones of HCC827-LTC or HCC827-DTC with endogenous EGFR knockout were picked one week after electroporation and their EGFR knockout was validated by genomic DNA sequencing. HCC827-LTC or HCC827-DTC single clones were also further validated with loss of inhibitory activity by covalent EGFR inhibitors.
as §1, §2

[2] = system: HCC827-DTC (HCC827 cells stably expressing human EGFR del19/T790M/C797S, endogenous EGFR knocked out); test: Cell growth inhibition (CellTiter-Glo), HCC827-DTC; conditions: 72 h, 3 days after administration
Procedure: as §3, §4, §1, §2

HCC827 = test: Cell growth inhibition (CellTiter-Glo), HCC827; conditions: Homo sapiens, 72 h, HCC827 cells, 3 days after administration
Procedure: as §1, §2

| GI50 (NCI-H2073) [nM] | GI50 [1] [nM] | GI50 [2] [nM] | GI50 (HCC827) [nM] | Compound |
| --- | --- | --- | --- | --- |
| 100 to 300 | 100 to 300 | 100 to 300 | 30 to 100 | COc1cc(N2CCC(N3CCN(C)CC3)CC2)c(C)cc1Nc1ncc(Br)c(Nc2ccc3nccnc3c2NS(C)(=O)=O)n1 [Compound 1, N-(6-((5-bromo-2-((2-methoxy-5-methyl-4-(4-(4-methylpiperazin-1-yl)piperidin-1-yl)phenyl)amino)pyrimidin-4-yl)amino)quinoxalin-5-yl)methanesulfonamide] |
| 100 to 300 | 30 to 100 | 30 to 100 | < 30 | CCc1cc(Nc2ncc(Br)c(Nc3ccc4nccnc4c3NS(C)(=O)=O)n2)c(OC)cc1N1CCC(N2CCN(C)CC2)CC1 [Compound 2, N-(6-((5-bromo-2-((5-ethyl-2-methoxy-4-(4-(4-methylpiperazin-1-yl)piperidin-1-yl)phenyl)amino)pyrimidin-4-yl)amino)quinoxalin-5-yl)methanesulfonamide] |
| 100 to 300 | 100 to 300 | 100 to 300 | 30 to 100 | COc1cc(N2CCC(N3CCN(C)CC3)CC2)c(C)cc1Nc1ncnc(Nc2ccccc2NS(C)(=O)=O)n1 [Compound 3, N-(2-((4-((2-methoxy-5-methyl-4-(4-(4-methylpiperazin-1-yl)piperidin-1-yl)phenyl)amino)-1,3,5-triazin-2-yl)amino)phenyl)methanesulfon-amide] |
| 30 to 100 | 100 to 300 | 30 to 100 | < 30 | COc1cc(N2CCC(N3CCN(C)CC3)CC2)c(C)cc1Nc1ncc(Cl)c(Nc2ccc3nccnc3c2NS(C)(=O)=O)n1 [Compound 4, N-(6-((5-chloro-2-((2-methoxy-5-methyl-4-(4-(4-methylpiperazin-1-yl)piperidin-1-yl)phenyl)amino)pyrimidin-4-yl)amino)quinoxalin-5-yl)methanesulfonamide] |
